Experimental data as given in patent US7956053B2, “Inhibitors of tyrosine kinases” (Novartis AG, priority 2002, dated 2011).

Key:
[1] = target: T1, c-Abl (Homo sapiens, UniProt P00519); test: Test for activity against c-Abl protein tyrosine kinase (filter binding assay); format: biochemical
T1 construct: The His-tagged kinase domain of c-Abl is cloned and expressed in the baculovirus/Sf9 system; His; made in house; host or cells: baculovirus/Sf9
T1 sequence (P00519 242-493 limits assumed): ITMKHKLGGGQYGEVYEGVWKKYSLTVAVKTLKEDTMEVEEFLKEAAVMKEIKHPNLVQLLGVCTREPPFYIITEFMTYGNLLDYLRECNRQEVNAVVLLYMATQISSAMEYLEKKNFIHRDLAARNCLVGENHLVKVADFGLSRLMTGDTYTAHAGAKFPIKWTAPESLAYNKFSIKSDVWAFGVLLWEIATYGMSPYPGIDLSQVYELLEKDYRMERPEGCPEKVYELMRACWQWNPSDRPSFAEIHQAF
Description: Test for activity against c-Abl protein tyrosine kinase. The test is conducted as a filter binding assay as follows: The His-tagged kinase domain of c-Abl is cloned and expressed in the baculovirus/Sf9 system as described by Bhat et al., J Biol. Chem. 272, 16170-5 (1997). A protein of 37 kD (c-Abl kinase) is purified by a two-step procedure over a Cobalt metal chelate column followed by an anion exchange column with a yield of 1-2 mg/L of Sf9 cells. The purity of the c-Abl kinase is >90% as judged by SDS-PAGE after Coomassie blue staining. The assay contains: c-Abl kinase (50 ng), 20 mM Tris.HCl, pH 7.5, 10 mM MgCl2, 10 μM Na3VO4, 1 mM DTT and 0.06 μCi/assay [γ^33 P]-ATP (5 μM ATP) using 30 μg/mL poly-Ala,Glu,Lys,Tyr-6:2:5:1 (Poly-AEKY, Sigma P1152) in the presence of 1% DMSO, total volume of 30 μL. Reactions are terminated by adding 10 μL of 250 mM EDTA, and 30 μL of the reaction mixture is transferred onto Immobilon-PVDF membrane (Millipore, Bedford, Mass., USA) previously soaked for 5 min with methanol, rinsed with water, then soaked for 5 min with 0.5% H3PO4 and mounted on vacuum manifold with disconnected vacuum source. After spotting all samples, vacuum is connected and each well rinsed with 200 μL 0.5% H3PO4. Membranes are removed and washed on a shaker with 0.5% H3PO4 (4 times) and once with ethanol. Membranes are counted after drying at ambient temperature, mounting in Packard TopCount 96-well frame, and addition of 10 μL/well of Microscint™ (Packard).
(§1) Enzymatic (c-Abl, KDR, Flt3) in vitro inhibition data are presented as % inhibition at 10 μM. The measurements are made as described above in the general description.

[2] = target: KDR (Homo sapiens, UniProt P35968); test: Enzymatic KDR in vitro inhibition; format: biochemical
Sequence of KDR (P35968 20-1356): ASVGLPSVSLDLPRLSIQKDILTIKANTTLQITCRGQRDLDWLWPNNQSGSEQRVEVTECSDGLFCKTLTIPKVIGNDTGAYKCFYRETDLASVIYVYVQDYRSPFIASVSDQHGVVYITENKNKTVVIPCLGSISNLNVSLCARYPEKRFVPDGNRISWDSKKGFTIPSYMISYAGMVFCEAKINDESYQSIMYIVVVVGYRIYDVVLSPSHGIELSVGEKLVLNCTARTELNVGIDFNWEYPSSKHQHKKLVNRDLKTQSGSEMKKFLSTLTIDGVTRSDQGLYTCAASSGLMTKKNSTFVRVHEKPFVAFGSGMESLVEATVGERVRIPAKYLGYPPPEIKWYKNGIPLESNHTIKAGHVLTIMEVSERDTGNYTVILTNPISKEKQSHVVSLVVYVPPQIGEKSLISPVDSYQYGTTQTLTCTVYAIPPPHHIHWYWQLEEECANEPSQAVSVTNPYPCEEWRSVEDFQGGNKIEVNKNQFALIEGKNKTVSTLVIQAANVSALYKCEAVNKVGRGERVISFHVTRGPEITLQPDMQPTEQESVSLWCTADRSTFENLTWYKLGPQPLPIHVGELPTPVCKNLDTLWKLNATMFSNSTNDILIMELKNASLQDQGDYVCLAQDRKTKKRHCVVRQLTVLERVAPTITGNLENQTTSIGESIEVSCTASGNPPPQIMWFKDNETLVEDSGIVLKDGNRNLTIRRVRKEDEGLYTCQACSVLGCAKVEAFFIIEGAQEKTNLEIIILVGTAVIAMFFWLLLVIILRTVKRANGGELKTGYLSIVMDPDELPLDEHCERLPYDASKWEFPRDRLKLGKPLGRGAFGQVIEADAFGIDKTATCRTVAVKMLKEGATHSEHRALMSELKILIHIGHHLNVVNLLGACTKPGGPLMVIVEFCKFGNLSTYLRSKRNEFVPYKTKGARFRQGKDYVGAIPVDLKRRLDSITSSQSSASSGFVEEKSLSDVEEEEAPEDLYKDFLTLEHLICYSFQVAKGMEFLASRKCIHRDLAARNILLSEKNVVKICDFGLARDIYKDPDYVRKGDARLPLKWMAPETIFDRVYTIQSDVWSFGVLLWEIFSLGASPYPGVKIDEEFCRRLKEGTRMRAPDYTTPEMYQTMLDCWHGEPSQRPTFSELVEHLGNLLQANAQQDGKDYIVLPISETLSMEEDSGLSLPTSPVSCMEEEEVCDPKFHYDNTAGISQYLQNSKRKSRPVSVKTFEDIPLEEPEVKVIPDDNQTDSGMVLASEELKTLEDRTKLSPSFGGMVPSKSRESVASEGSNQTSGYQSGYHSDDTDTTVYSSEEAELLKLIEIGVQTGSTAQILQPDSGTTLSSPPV
Description: Test for activity against VEGF-receptor tyrosine kinase. The test is conducted using Flt-1 VEGF-receptor tyrosine kinase. The detailed procedure is as follows: 30 μL kinase solution (10 ng of the kinase domain of Flt-1, Shibuya et al., Oncogene 5, 519-24 [1990]) in 20 mM Tris.HCl pH 7.5, 3 mM manganese dichloride (MnCl2), 3 mM magnesium chloride (MgCl2), 10 μM sodium vanadate, 0.25 mg/mL polyethylenglycol (PEG) 20000, 1 mM dithiothreitol and 3 μg/μL poly(Glu,Tyr) 4:1 (Sigma, Buchs, Switzerland), 8 μM [^33P]-ATP (0.2 μCi), 1% DMSO, and 0 to 100 μM of the compound to be tested are incubated together for 10 minutes at room temperature. The reaction is then terminated by the addition of 10 μL 0.25 M ethylenediaminetetraacetate (EDTA) pH 7. Using a multichannel dispenser (LAB SYSTEMS, USA), an aliquot of 20 μL is applied to a PVDF (=polyvinyl difluoride) Immobilon P membrane (Millipore, Bedford, USA), through a Gibco-BRL microtiter filter manifold and connected to a vacuum. Following complete elimination of the liquid, the membrane is washed 4 times successively in a bath containing 0.5% phosphoric acid (H3PO4) and once with ethanol, incubated for 10 minutes each time while shaking, then mounted in a Hewlett Packard TopCount Manifold and the radioactivity measured after the addition of 10 μL Microscint® (β-scintillation counter liquid). IC50-values are determined by linear regression analysis of the percentages for the inhibition of each compound in at least four concentrations (as a rule 0.01, 0.1, 1.0 and 10 μmol).
as §1

Molecule | Abl %@10 μM ([1]; % inhibition at 10 μM) | KDR %@10 μM ([2]; % inhibition at 10 μM) | inhibition at 10 µM [1] | inhibition at 10 µM [2]
4-Methyl-N-[(5-methylpyrazinyl)methyl]-3-[[4-(3-pyridinyl)-2-pyrimidinyl]amino]benzamide [Example 55] | 43% | 54% | – | –
Cc1ccc(C(=O)NCc2ccco2)cc1Nc1nccc(-c2cccnc2)n1 [Example 1, N-(2-Furanylmethyl)-4-methyl-3-[[4-(3-pyridinyl)-2-Pyrimidinyl]amino]benzamide] | – | – | 51% | 57%
Cc1ccc(C(=O)Nc2ccc(CN3CCN(C)CC3)cc2)cc1Nc1nccc(-c2cccnc2)n1 [Example 2, N-[4-Methyl-3-[[4-(3-pyridinyl)-2-pyrimidinyl]amino]benzoyl]-4-[(4-methyl-1-piperazinyl)methyl]benzeneamine] | – | – | 97% | 73%
Cc1ccc(C(=O)N2CCN(c3ccccn3)CC2)cc1Nc1nccc(-c2cccnc2)n1 [Example 3, 1-[4-Methyl-3-[[4-(3-pyridinyl)-2-pyrimidinyl]amino]benzoyl]-4-(2-pyridinyl)piperazine] | – | – | 66% | 71%
Cc1ccc(C(=O)NCCc2ccccn2)cc1Nc1nccc(-c2cccnc2)n1 [Example 4, 4-Methyl-N-[2-(2-pyridinyl)ethyl]-3-[[4-(3-pyridinyl)-2-pyrimidinyl]amino]-benzamide] | – | – | 77% | 46%
Cc1ccc(C(=O)NC2CCN(Cc3ccccc3)CC2)cc1Nc1nccc(-c2cccnc2)n1 [Example 5, 4-Methyl-N-[1-(phenylmethyl)-4-piperidinyl]-3-[[4-(3-pyridinyl)-2-pyrimidinyl]amino]benzamide] | – | – | 71% | 60%
Cc1ccc(C(=O)NCc2ccncc2)cc1Nc1nccc(-c2cccnc2)n1 [Example 6, 4-Methyl-N-(4-pyridinylmethyl)-3-[[4-(3-pyridinyl)-2-pyrimidinyl]amino]benzamide] | – | – | 51% | 56%
Cc1ccc(C(=O)NCCc2cccn2C)cc1Nc1nccc(-c2cccnc2)n1 [Example 7, 4-Methyl-N-[2-(1-methyl-1H-pyrrol-2-yl)ethyl]-3-[[4-(3-pyridinyl)-2-pyrimidinyl]amino]benzamide] | – | – | 72% | 45%
COc1ccc(CNC(=O)c2ccc(C)c(Nc3nccc(-c4cccnc4)n3)c2)cc1 [Example 8, N-[(4-Methoxyphenyl)methyl]-4-methyl-3-[[4-(3-pyridinyl)-2-pyrimidinyl]amino]benzamide] | – | – | 70% | 81%
Cc1ccc(C(=O)NCC(C)C)cc1Nc1nccc(-c2cccnc2)n1 [Example 9, 4-Methyl-N-(2-methylpropyl)-3-[[4-(3-pyridinyl)-2-pyrimidinyl]amino]benzamide] | – | – | 44% | 39%
Cc1ccc(C(=O)NCCN2CCOCC2)cc1Nc1nccc(-c2cccnc2)n1 [Example 10, 4-Methyl-N-(2-morpholinoethyl)-3-[[4-(3-pyridinyl)-2-pyrimidinyl]amino]-benzamide] | – | – | 57% | 48%
Cc1ccc(C(=O)NCC2CCCO2)cc1Nc1nccc(-c2cccnc2)n1 (stereo not shown) [Example 11, 4-Methyl-3-[[4-(3-pyridinyl)-2-pyrimidinyl]amino]-N-[(tetrahydro-2-furanyl)methyl]benzamide] | – | – | 53% | 41%
Cc1ccc(C(=O)NCCc2cnc(O)nc2O)cc1Nc1nccc(-c2cccnc2)n1 [Example 12, N-[2-(2,4-Dihydroxy-5-pyrimidinyl)ethyl]-4-methyl-3-[[4-(3-pyridinyl)-2-pyrimidinyl]amino]benzamide] | – | – | 22% | 33%
Cc1ccc(C(=O)NC2CCCCC2)cc1Nc1nccc(-c2cccnc2)n1 [Example 13, N-Cyclohexyl-4-methyl-3-[[4-(3-pyridinyl)-2-pyrimidinyl]amino]benzamide] | – | – | 78% | 48%
Cc1ccc(C(=O)N[C@H]2CCCCNC2=O)cc1Nc1nccc(-c2cccnc2)n1 [Example 14, N-[(3S)-Hexahydro-2-oxo-1H-azepin-3-yl]-4-methyl-3-[[4-(3-pyridinyl)-2-pyrimidinyl]amino]benzamide] | – | – | 49% | 54%
COc1ccc(CCNC(=O)c2ccc(C)c(Nc3nccc(-c4cccnc4)n3)c2)cc1OC [Example 15, N-[2-(3,4-Dimethoxyphenyl)ethyl]-4-methyl-3-[[4-(3-pyridinyl)-2-pyrimidinyl]amino]benzamide] | – | – | 60% | 23%
CCOC(=O)Cc1csc(NC(=O)c2ccc(C)c(Nc3nccc(-c4cccnc4)n3)c2)n1 [Example 16, 2-[[4-Methyl-3-[[4-(3-pyridinyl)-2-pyrimidinyl]amino]benzoyl]amino]-4-thiazoleacetic acid ethyl ester] | – | – | 42% | 10%

Results, then the molecule that gave them:

Abl %@10 μM ([1]; % inhibition at 10 μM) | KDR %@10 μM ([2]; % inhibition at 10 μM) | inhibition at 10 µM [1] | inhibition at 10 µM [2] | Molecule
– | – | 54% | 62% | Cc1ccc(C(=O)NCCCn2ccnc2)cc1Nc1nccc(-c2cccnc2)n1 [Example 17, N-[3-(1H-Imidazol-1-yl)propyl]-4-methyl-3-[[4-(3-pyridinyl)-2pyrimidinyl]amino]benzamide]
– | – | 56% | 62% | Cc1ccc(C(=O)NCC2CC2)cc1Nc1nccc(-c2cccnc2)n1 [Example 18, N-(Cyclopropylmethyl)-4-methyl-3-[[4-(3-pyridinyl)-2-pyrimidinyl]amino]-benzamide]
– | – | 41% | 33% | COCCNC(=O)c1ccc(C)c(Nc2nccc(-c3cccnc3)n2)c1 [Example 19, N-(2-methoxyethyl)-4-methyl-3-[[4-(3-pyridinyl)-2-pyrimidinyl]amino]benzamide]
– | – | 56% | 22% | Cc1ccc(C(=O)NCCCN2CCCC2=O)cc1Nc1nccc(-c2cccnc2)n1 [Example 20, 4-Methyl-N-[3-(2-oxo-1-pyrrolidinyl)propyl]-3-[[4-(3-pyridinyl)-2-pyrimidinyl]amino]benzamide]
– | – | 30% | 93% | Cc1ccc(C(=O)N(C)Cc2ccccc2)cc1Nc1nccc(-c2cccnc2)n1 [Example 21, N,4-Dimethyl-N-(phenylmethyl)-3-[[4-(3-pyridinyl)-2-pyrimidinyl]amino]-benzamide]
– | – | 59% | 7% | CC(=O)Nc1ccc(NC(=O)c2ccc(C)c(Nc3nccc(-c4cccnc4)n3)c2)cc1 [Example 22, N-[4-(Acetylamino)phenyl]-4-methyl-3-[[4-(3-pyridinyl)-2-pyrimidinyl]amino]benzamide]
– | – | 90% | 67% | COc1ccc(NC(=O)c2ccc(C)c(Nc3nccc(-c4cccnc4)n3)c2)c(C)c1 [Example 23, N-(4-Methoxy-2-methylphenyl)-4-methyl-3-[[4-(3-pyridinyl)-2-pyrimidinyl]amino]benzamide]
– | – | 78% | – | Cc1ccc(C(=O)NCc2ccc(S(N)(=O)=O)cc2)cc1Nc1nccc(-c2cccnc2)n1 [Example 29, N-[[4-(Aminosulfonyl)phenyl]methyl]-4-methyl-3-[[4-(3-pyridinyl)-2-pyrimidinyl]amino]benzamide]
